Values quoted from earlier work as cited in paper PMC9065038 (Scientific Reports, 2022).

Tests used:
[1] = set-up: method as in PMID 28635181; settings: rats
[2] = in vivo
[3] = in vivo; remark: listed apart in the source
[4] = constipation, respiratory depression
[5] = target: NOP receptor (S346, S351, T362/S363) (Homo sapiens, UniProt P41146)
NOP receptor (S346, S351, T362/S363), sequence (P41146 whole entry): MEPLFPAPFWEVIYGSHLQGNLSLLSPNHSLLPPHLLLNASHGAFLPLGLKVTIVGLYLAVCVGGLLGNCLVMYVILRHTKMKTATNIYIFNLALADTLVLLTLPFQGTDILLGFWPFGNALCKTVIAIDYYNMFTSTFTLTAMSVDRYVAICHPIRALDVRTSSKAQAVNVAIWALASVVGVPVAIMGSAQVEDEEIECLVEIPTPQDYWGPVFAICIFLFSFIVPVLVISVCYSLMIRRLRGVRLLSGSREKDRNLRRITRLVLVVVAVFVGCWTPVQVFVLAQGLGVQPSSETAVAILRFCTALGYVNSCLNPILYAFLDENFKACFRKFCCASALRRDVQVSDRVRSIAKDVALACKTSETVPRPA

CCC1C(=O)N(C2CCN(CCC(c3ccccc3)c3ccccc3)CC2)c2ccccc21 (stereo not drawn) [AT-034]
cocaine self-administration [1]: significantly reduce cocaine self-administration

CC(C)[C@H]1CC[C@@H](N2CCC3(CC2)C(=O)N(CCNS(N)(=O)=O)Cc2ccccc23)CC1 [AT-121]
anti-nociceptive and anti-hyperalgesic effects [2]: potent anti-nociceptive and anti-hyperalgesic effects | reinforcing effects or physical dependence [3]: devoid of reinforcing effects or physical dependence | tolerance development [3]: significantly lower tolerance development

COc1ccsc1CNCC[C@@]1(c2ccccn2)CCOC2(CCCC2)C1 [TRV130]
side-effects in clinical trials [4]: failed to produce therapeutic results devoid of side-effects

buprenorphine
NOP phosphorylation profile (in words) [5]: none at NOP
